Assays:
[1] = molecular target: T1, Amine oxidase [flavin-containing] A (Homo sapiens, UniProt P21397); experiment: biochemical
T1 sequence (P21397 whole entry): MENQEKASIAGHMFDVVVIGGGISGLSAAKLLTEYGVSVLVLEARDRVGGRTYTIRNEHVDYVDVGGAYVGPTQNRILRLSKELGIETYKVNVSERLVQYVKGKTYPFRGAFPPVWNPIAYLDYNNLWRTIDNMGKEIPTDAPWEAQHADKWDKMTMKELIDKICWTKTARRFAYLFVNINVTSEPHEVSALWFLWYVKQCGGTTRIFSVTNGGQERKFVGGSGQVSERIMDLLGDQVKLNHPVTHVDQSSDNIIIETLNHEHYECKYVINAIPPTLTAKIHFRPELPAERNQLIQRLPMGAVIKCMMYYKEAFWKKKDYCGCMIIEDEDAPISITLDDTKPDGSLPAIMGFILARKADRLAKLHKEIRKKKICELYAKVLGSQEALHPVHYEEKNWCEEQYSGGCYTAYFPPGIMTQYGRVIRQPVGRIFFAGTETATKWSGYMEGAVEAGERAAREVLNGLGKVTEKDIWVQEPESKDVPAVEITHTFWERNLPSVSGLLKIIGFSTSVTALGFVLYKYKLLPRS
Description: Inhibition of human recombinant MAO-A expressed in baculovirus infected insect cells by luminescence assay

[2] = molecular target: T2, Amine oxidase [flavin-containing] B (Homo sapiens, UniProt P27338); experiment: biochemical
T2 sequence (P27338 whole entry): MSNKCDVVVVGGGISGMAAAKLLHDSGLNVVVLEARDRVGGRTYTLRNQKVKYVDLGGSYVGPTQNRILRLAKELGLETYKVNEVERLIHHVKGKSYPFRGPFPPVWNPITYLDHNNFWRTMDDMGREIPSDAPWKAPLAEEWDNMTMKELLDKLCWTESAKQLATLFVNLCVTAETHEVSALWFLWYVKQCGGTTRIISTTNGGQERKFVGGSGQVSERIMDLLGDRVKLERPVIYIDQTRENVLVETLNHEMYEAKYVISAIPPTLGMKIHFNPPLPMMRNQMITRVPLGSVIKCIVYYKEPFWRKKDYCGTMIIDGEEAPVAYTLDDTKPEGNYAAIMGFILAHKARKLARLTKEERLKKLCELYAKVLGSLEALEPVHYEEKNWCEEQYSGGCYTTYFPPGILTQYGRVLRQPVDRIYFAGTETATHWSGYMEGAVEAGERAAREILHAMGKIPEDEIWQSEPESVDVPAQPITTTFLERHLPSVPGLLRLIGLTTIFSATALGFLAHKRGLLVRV
Description: Inhibition of human recombinant MAO-B expressed in baculovirus infected insect cells by luminescence assay

MV4-11 [3] = experiment: Antiproliferative activity against human MV4-11 cells after 3 days by MTS assay; type: functional, cell-based; conditions: MV4-11, 72 h
RPMI-8226 [4] = experiment: Antiproliferative activity against human RPMI8226 cells after 3 days by MTS assay; type: functional, cell-based; conditions: RPMI-8226, 72 h
RPMI-8226 [5] = experiment: Antiproliferative activity against human RPMI8226 cells after 10 days by MTS assay; type: functional, cell-based; conditions: RPMI-8226, 240 h
MV4-11 [6] = experiment: Antiproliferative activity against human MV4-11 cells after 10 days by MTS assay; type: functional, cell-based; conditions: MV4-11, 240 h
[7] = molecular target: T3, Lysine-specific histone demethylase 2 (Homo sapiens, UniProt Q8NB78)
T3 sequence (Q8NB78 whole entry): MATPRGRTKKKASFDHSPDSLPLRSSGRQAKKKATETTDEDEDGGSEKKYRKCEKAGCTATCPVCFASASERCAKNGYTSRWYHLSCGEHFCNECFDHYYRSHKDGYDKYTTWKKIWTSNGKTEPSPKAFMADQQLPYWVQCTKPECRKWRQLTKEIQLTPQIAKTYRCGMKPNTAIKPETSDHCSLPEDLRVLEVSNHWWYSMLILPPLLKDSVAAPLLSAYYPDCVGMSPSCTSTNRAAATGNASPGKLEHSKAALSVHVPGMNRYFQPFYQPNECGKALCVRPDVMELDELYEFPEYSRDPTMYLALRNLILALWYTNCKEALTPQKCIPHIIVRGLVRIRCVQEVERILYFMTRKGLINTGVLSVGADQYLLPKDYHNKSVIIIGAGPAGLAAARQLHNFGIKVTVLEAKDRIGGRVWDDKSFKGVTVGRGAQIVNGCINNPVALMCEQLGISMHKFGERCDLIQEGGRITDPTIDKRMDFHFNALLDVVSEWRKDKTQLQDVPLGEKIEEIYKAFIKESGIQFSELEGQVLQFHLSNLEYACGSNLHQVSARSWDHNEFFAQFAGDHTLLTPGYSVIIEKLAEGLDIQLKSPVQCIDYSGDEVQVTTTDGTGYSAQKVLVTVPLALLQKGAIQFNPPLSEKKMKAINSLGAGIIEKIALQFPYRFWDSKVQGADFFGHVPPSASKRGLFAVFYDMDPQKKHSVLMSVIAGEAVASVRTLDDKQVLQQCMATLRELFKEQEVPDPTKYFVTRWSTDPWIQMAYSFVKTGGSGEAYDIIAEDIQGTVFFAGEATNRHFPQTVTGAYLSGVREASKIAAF
Description: Inhibition of human full length LSD2 using biotin-labeled H3K4me2 (1 to 24 residues) as substrate after 1 hr by TR-FRET assay

SMILES	IC50 [1]	IC50 [2]	IC50 (MV4-11 [3])	IC50 (RPMI-8226 [4])	IC50 (RPMI-8226 [5])	IC50 (MV4-11 [6])	IC50 [7]
N[C@@H]1[C@H]2Cc3ccccc3[C@@H]12 (relative stereo)	> 100 µM	> 100 µM	–	–	–	–	–
N[C@H]1CC[C@H](N[C@H]2[C@H]3Cc4ccccc4[C@H]32)CC1 (racemic)	> 100 µM	> 100 µM	> 20 µM	> 20 µM	> 20 µM	0.7 µM	–
N[C@H]1CC[C@@H](N[C@@H]2[C@H]3Cc4ccccc4[C@H]32)CC1 (racemic)	> 100 µM	> 100 µM	–	–	–	–	–
COc1ncccc1CN[C@@H]1[C@H]2Cc3ccccc3[C@H]21 (racemic)	> 100 µM	> 100 µM	–	–	–	–	> 100 µM
COc1ncccc1CN[C@H]1[C@H]2Cc3ccccc3[C@H]21 (racemic)	79.7 µM	> 100 µM	–	–	–	–	–
NC1CCC(N[C@@H]2C[C@H]2c2ccccc2)CC1 (stereo partly specified)	> 100 µM	–	> 20 µM	> 20 µM	> 20 µM	0.03 µM	> 100 µM
N[C@H]1CC[C@@H](N[C@H]2[C@H]3Cc4ccccc4[C@H]32)CC1 (racemic)	> 100 µM	> 100 µM	> 20 µM	> 20 µM	> 20 µM	0.2 µM	–
N[C@H]1CC[C@H](N[C@@H]2[C@H]3Cc4ccccc4[C@H]32)CC1 (racemic)	> 100 µM	> 100 µM	–	–	–	–	–
N[C@H]1[C@H]2Cc3ccccc3[C@@H]12 (relative stereo)	> 100 µM	> 100 µM	–	–	–	–	–

Reference: ChEMBL document CHEMBL4130492, “Tying up tranylcypromine: Novel selective histone lysine specific demethylase 1 (LSD1) inhibitors” (Eur J Med Chem, 2017)
